In test [1] the test system is caspase 3/7 activation in NCI-H441 cells. Kind of test: Caspase-Glo 3/7 assay. The conditions noted are these: 24 hours post-treatment, normalized to DMSO control, combination at 1:1. The test is classed as cell-based. As to the method: Cell lines were maintained in the growth medium recommended by ATCC (American Type Culture Collection). […] The compounds were serially diluted in DMSO from the highest concentration of 30 μM (single compounds and in combination with constant a constant ratio of 1:1). […] The percentage of induction of apoptosis was normalized to DMSO control (no compound).

Another test relates to T47-D. Kind of test: Anti-proliferation assay with +JQ1, Chalice synergy score. The test is classed as cell-based, human. The settings on record: combination with +JQ1, average. As to the method: (§1) Cells were thawed from a liquid nitrogen preserved state.
(§2) The calculation for synergy score is provided below.
(§3) If T≧V0:100*[1−(T−V0)/(V−V0)]
(§4) Cells were grown, treated and analyzed as described above, and synergy was calculated using the Chalice Software (Zalicus, Inc., Cambridge Mass.), described above. Cell lines used included T47D (human ductal breast epithelial tumor cell line), MCF (adenocarcinoma breast cancer cell line), MDA-MM468 (adenocarcinoma breast cancer cell line), HCC-70 (carcinoma, ductal breast cancer cell line), SKBR-3 (adenocarcinoma breast cancer cell line), MM-453 (adenocarcinoma breast cancer cell line).

In test [2] the test system is cancer cell lines (T47D, MCF, MDA-MM468, HCC-70, SKBR-3, MM-453). Kind of test: Anti-proliferation assay with +JQ1, cancer cell lines overall. The test is classed as cell-based. The settings on record: treatment with +JQ1. As to the method: as §4
Another test has as its system MM-453. Kind of test: Anti-proliferation assay with +JQ1, Chalice synergy score. The test is classed as cell-based. The settings on record: combination with +JQ1, average. As to the method:
as §1, §2, §3, §4

Another test deals with MCF-7. The test is described as above. The test is classed as cell-based. The conditions noted are these: combination with +JQ1, average. As to the method: as §1, §2, §3, §4
The test system of a further test is HCC-70. Described as above. The test is classed as cell-based. The conditions noted are these: combination with +JQ1, average. As to the method: as §1, §2, §3, §4
For a further test, the system named is MM-468. Described as above. The conditions noted are these: combination with +JQ1, average. The test is classed as cell-based. As to the method:
as §1, §2, §3, §4

Another test concerns SKBR-3. Described as above. The settings on record: combination with +JQ1, average. The test is classed as cell-based. As to the method: as §1, §2, §3, §4
The next test relates to HCC70. Kind of test: Anti-proliferation assay (ATPLite), Chalice synergy score. The test is classed as cell-based. The conditions noted are these: Compound 1 in combination with second active agent; HCC-70; mean self-cross + 2σ threshold 3.45.
Excerpt: as §1, §2, §3
(Cellular ATP, detected with luciferase, serves as a proxy for viable cell number.)

For the next test, the system named is HCC-1806. The test is described as above. The test is classed as cell-based. The conditions noted are these: Compound 1 in combination with the named second active agent, 72 h, mean of n = 3 experiments in triplicate.
Excerpt: as §1, §2, §3

The subject of another test is MDA-MB-231. The description is as above. The test is classed as cell-based. The conditions noted are these: Compound 1 in combination with second active agent, mean self-cross + 2σ threshold 2.61.
Excerpt: as §1, §2, §3

A further test concerns MDA-MB-436. Described as above. The test is classed as cell-based. The conditions noted are these: Compound 1 in combination with second active agent, mean self-cross + 2σ threshold 1.91.
Excerpt: as §1, §2, §3

Another test deals with MCF7. Described as above. The test is classed as cell-based. The conditions noted are these: Compound 1 in combination with second active agent, mean self-cross + 2σ threshold 3.07.
Excerpt: as §1, §2, §3

The next test deals with Hs-578-T. The test is described as above. The test is classed as cell-based. The settings on record: Compound 1 in combination with second active agent, mean self-cross + 2σ threshold 4.09.
Excerpt: as §1, §2, §3

A further test concerns HCC-1428. The description is as above. The test is classed as cell-based. The conditions noted are these: Compound 1 in combination with the named second active agent, 72 h, mean of n = 3 experiments in triplicate.
Excerpt: as §1, §2, §3

The next test deals with HCC-1937. The description is as above. The test is classed as cell-based. The settings on record: Compound 1 in combination with the named second active agent, 72 h, mean of n = 3 experiments in triplicate.
Excerpt: as §1, §2, §3

The test system of the next test is BT-549. The description is as above. The test is classed as cell-based. The conditions noted are these: Compound 1 in combination with the named second active agent, 72 h, mean of n = 3 experiments in triplicate.
Excerpt: as §1, §2, §3

Another test has as its system BT-474. Described as above. The test is classed as cell-based. The settings on record: Compound 1 in combination with the named second active agent, 72 h, mean of n = 3 experiments in triplicate.
Excerpt: as §1, §2, §3

The test system of the next test is MDA-MB-157. The test is described as above. The settings on record: Compound 1 in combination with second active agent, mean self-cross + 2σ threshold 4.68. The test is classed as cell-based.
Excerpt: as §1, §2, §3

A further test relates to MDA-MB-468. The description is as above. The test is classed as cell-based. The conditions noted are these: Compound 1 in combination with second active agent, mean self-cross + 2σ threshold 4.66.
Excerpt: as §1, §2, §3

The subject of another test is HCC-1187. The description is as above. The test is classed as cell-based. More on the design: scale not given here. The settings on record: Compound 1 in combination with the named second active agent, 72 h, mean of n = 3 experiments in triplicate.
Excerpt: as §1, §2, §3

For a further test, the system named is HCC-1500. Described as above. The test is classed as cell-based. Also noted: scale not given here. The conditions noted are these: Compound 1 in combination with the named second active agent, 72 h, mean of n = 3 experiments in triplicate.
Excerpt: as §1, §2, §3

For a further test, the system named is BT-20. The test is described as above. The test is classed as cell-based. More on the design: scale not given here. The conditions noted are these: Compound 1 in combination with the named second active agent, 72 h, mean of n = 3 experiments in triplicate.
Excerpt: as §1, §2, §3

In test [3] the test system is breast cancer cell line panel. Kind of test: Anti-proliferation assay, seventeen breast cancer cell line panel. The test is classed as cell-based. The settings on record: single agent, cell lines where the GI50 reached inhibition levels of greater than fifty percent, read-out: median GI50. The text has this:
Cells were thawed from a liquid nitrogen preserved state. […] After seventy-two hours, […] developed for endpoint analysis using ATPLite. […] The calculation for synergy score is provided below. […] Compound 1 had varying activity across the seventeen cell line panel.

As for `O=C(NOCC1CC1)c1ccc(F)c(F)c1Nc1ccc(I)cc1Cl` [CI-1040], the “% Caspase activation Mean (n = 3)” value came to 98.6% in test [1] (0.1 μM); 104.1% in test [1] (0.3 μM); 96.6% in [1] (1 μM); 99.3% in [1] (3 μM); 103.9% in test [1] (10 μM); 124.2% in [1] (30 μM).

Regarding `CO[C@H]1CC[C@H](N2C(=O)CNc3ncc(-c4ccc(C(C)(C)O)nc4)nc32)CC1` [Compound 2, 7-(6-(2-hydroxypropan-2-yl)pyridin-3-yl)-1-((1r,4r)-4-methoxycyclohexyl)-3,4-dihydropyrazino-[2,3-b]pyrazin-2(1H)-one], the “Chalice Calculated Synergy Scores, Averages” value in the test with T47-D is on record as 4.02; with MM-453, 7.03; in the test on MCF-7, 2.07; in the test with HCC-70, 5.98; with MM-468, 11.58; in the test on SKBR-3, 6.14. For the same molecule, in [2], the Synergism entry is “Synergism was observed”. The “% Caspase activation Mean (n = 3)” value in [1] (0.1 μM) stood at 69.9%; in [1] (0.3 μM), 66.4%; in test [1] (1 μM), 67.7%; in [1] (3 μM), 77.7%; in [1] (10 μM), 80%; in test [1] (30 μM) it was 85.5%.

Take `O=C(NC[C@H](O)CO)c1ccncc1Nc1ccc(I)cc1F` [AS703026]: the Synergy score worked out at 13.70 in the test with HCC70; 4.71 with HCC-1806; 10.90 in the test on MDA-MB-231; 2.25 with MDA-MB-436; 2.90 in the test with MCF7; 6.43 in the test with Hs-578-T. Further, the Synergy score is 6.26 with HCC-1428; 2.41 with HCC-1937; 1.73 with BT-549; 2.61 with BT-474; 6.66 in the test on MDA-MB-157; 5.71 in the test on MDA-MB-468. Also, the Synergy score with HCC-1187 is 8.22; in the test with HCC-1500, 4.24; in the test on BT-20 it was 6.08.

As to `O=C(Nc1cc(C(F)(F)F)cc(C(F)(F)F)c1)c1cc(Cl)ccc1O` [IMD-0354], the Synergy score in the test with HCC70 turned out to be 0.88; in the test on HCC-1806, 7.45; in the test with MDA-MB-231, 6.14; with MDA-MB-436 it was 3.94; in the test on MCF7, 2.88; with Hs-578-T it was 3.35. The Synergy score in the test on HCC-1428 worked out at 0.51; in the test with HCC-1937, 6.42; with BT-549 it was 2.68; with BT-474, 1.77; with MDA-MB-157, 4.80; in the test on MDA-MB-468 it was 3.80. The Synergy score in the test on HCC-1187 was determined as 1.86; with HCC-1500, 1.42; in the test on BT-20, 1.85.

As for `C[C@]1(c2nc3c(C(N)=O)cccc3[nH]2)CCCN1` [ABT-888], the Synergy score in the test with HCC70 is on record as 1.10; with HCC-1806, 0.56; with MDA-MB-231 it was 0.22; with MDA-MB-436, 0.32; with MCF7 it was 0.25; in the test with Hs-578-T it was 0.42. In addition, the Synergy score in the test on HCC-1428 stood at 0.09; with HCC-1937, 0.35; in the test with BT-549, 0.35; with BT-474 it was 0.09; with MDA-MB-157, 0.90; in the test with MDA-MB-468, 0.18. Besides, the Synergy score is 1.28 in the test on HCC-1187, 1.13 in the test on HCC-1500 and 0.33 with BT-20.

Regarding `CN(C)CCCn1cc(C2=C(c3c[nH]c4ccccc34)C(=O)NC2=O)c2ccccc21` [GF 109203X], the Synergy score came to 4.47 in the test with HCC70; 0.43 in the test on HCC-1806; 2.28 with MDA-MB-231; 2.60 in the test on MDA-MB-436; 0.35 in the test on MCF7; 2.35 in the test on Hs-578-T. The Synergy score in the test with HCC-1428 was 0.47; in the test with HCC-1937, 3.03; in the test on BT-549 it was 1.73; with BT-474 it was 0.47; in the test with MDA-MB-157 it was 6.19; in the test with MDA-MB-468, 10.60. The Synergy score with HCC-1187 is recorded as 4.47; with HCC-1500, 3.41; in the test on BT-20, 1.04.

Take `CCN1C(=O)CNc2ncc(-c3ccc(-c4nc[nH]n4)nc3C)nc21` [Compound 1, 1-ethyl-7-(2-methyl-6-(1H-1,2,4-triazol-3-yl)pyridin-3-yl)-3,4-dihydropyrazino[2,3-b]pyrazin-2(1H)-one]: the “Chalice Calculated Synergy Scores, Averages” value in the test with T47-D is on record as 8.74; with MM-453, 16.37; with MCF-7, 7.37; with HCC-70 it was 12.05; in the test with MM-468 it was 17.26; with SKBR-3, 9.59. Also, the Synergism entry in test [2] is reported as “Synergism was observed”. Further, in test [3], the GI50 (commonly the concentration giving 50% growth inhibition) was determined as 140 nM.

These data come from US9737535B2, “Methods for treating cancer using TOR kinase inhibitor combination therapy comprising administering substituted pyrazino[2,3-b]pyrazines” (Signal Pharmaceuticals, LLC, priority 2014, dated 2017).
